Results on two compounds are retold here after patent publication US10821064B2, “Anti-dandruff agents” (Croda International PLC, priority 2015, dated 2020).

Series [1] relates to Malassezia furfur (ATCC #38593). As to the kind of experiment: Malassezia furfur growth inhibition assay (96-well, Alamar blue). The series is classed as cell-based. The protocol:
Malassezia furfur (ATCC #38593) was cultured on Media C agar for 7 days at 37° C. Yeast colonies were then harvested into 0.9% saline sterile diH2O and diluted to approximately 1.5×10^6 CFU/mL using a 0.5 MacFarland standard (Fisher # R20410) to create an assay inoculum. Assay inoculum was added to sterile Media C broth to a final concentration of 4.5×10^4 CFU/mL. Assays were carried out in 96 well plates with a final well volume of 100 μL. Extract fractions and pure compounds were tested in triplicate against each organism. Extract fractions and pure compounds were re-suspended in sterile 20% DMSO. Extract fractions were assayed at two concentrations (50 and 250 μg/mL) with a final well volume concentration of 2% DMSO while pure compounds were serially diluted to generate a range of eight concentrations (128 μg/mL to 1 μg/mL) in a final well volume concentration of 2% DMSO. Each plate contained eight un-inoculated positive controls (media+20% DMSO), eight untreated negative controls (Media+20% DMSO+organism), and one column containing a concentration range of a ketoconazole as a control antibiotic. The assay plate was incubated at 37° C. for 5 days after which growth within the wells were visualised and photographed with a UVP Biospectrum 500 imaging system. Alamar blue was then added to each well at 10% of the culture volume (11 μL in 100 μL). Fluorescence was monitored using a BioTek Synergy HT plate reader at 530/25 excitation, 590/35 emission and 35 sensitivity at both time zero and 4 hrs after Alamar blue was added. After subtracting the time zero emission 590 nm measurement from the final reading the inferred percentage of microorganism survival relative to vehicle control wells were calculated and the IC50 was determined.
On the technique in general: Resazurin is reduced to fluorescent resorufin, in cell work by metabolically active cells.

For series [2], the system named is Adult human epidermal keratinocytes (Heka). Description: Keratinocyte cytotoxicity assay (Alamar blue). The series is classed as cell-based. As to the method:
Adult human epidermal keratinocytes (Heka) isolated from skin (Invitrogen # C-005-5C) were grown and maintained in 15 mL of EPilife medium (Invitrogen # M-EPI-500) supplemented with HKGS growth supplements (Invitrogen # S-001-5) (0.2% v/v bovine pituitary extract (BPE), 5 μg/mL bovine insulin, 0.18 μg/mL hydrocortisone, 5 μg/mL bovine transferrin, 0.2 ng/mL human epidermal growth factor) and 50 μg/mL gentamicin (Sigma # G1397-10ML) in T75 cm^2 cell culture flasks (VWR # CABD353136) and incubated at 37° C. in a humidified atmosphere of 5% CO2. Growth medium was refreshed every 2 days until the cells reached 50% confluency and then the medium was refreshed every 24 hrs until 80% confluency was obtained.
At 80% confluency, the cells were counted, diluted and plated into 96 well treated cell culture plates (VWR #29442-054) at a cell density of 10000 cells per well in 90 μL of respective growth medium. […]
(§1) All samples were tested in triplicate. […] Fluorescence was monitored using a BioTek Synergy HT plate reader at 530/25 excitation, 590/35 emission and 35 sensitivity at both time zero and 4 hrs after Alamar blue was added. After subtracting the time zero emission 590 nm measurement from the final reading the inferred percentage of microorganism survival relative to vehicle control wells were calculated and the IC50 was determined.

Series [3] has as its system Human foreskin BJ fibroblast cells (ATCC CRL-2522). Description: Fibroblast cytotoxicity assay (Alamar blue). Format: cell-based. As to the method: Human foreskin BJ fibroblast cells (ATCC CRL-2522) were grown and maintained in 15 mL of Eagle's minimal essential medium (Sigma M5650) supplemented with 10% fetal bovine serum (VWR # CA95043-976) and […] penicillin and 0.1 mg/mL streptomycin (VWR # CA12001-692) in T75 cm^2 cell culture flasks (VWR # CABD353136) at 37° C. in a humidified atmosphere of 5% CO2. Culture medium was refreshed every two to three days and cells were not allowed to exceed 80% confluency.
At 80% confluency, the cells were counted, diluted and plated into 96 well treated cell culture plates (VWR #29442-054) at a cell density of 10000 cells per well in 90 μL of respective growth medium. All media used for the assay were the same without the addition of antibiotics. The plates were incubated at 37° C. in a humidified atmosphere of 5% CO2 to allow cells to adhere to the plates for 24 hrs before treatment. DMSO was used as the vehicle at a final concentration of 1% in the wells. […]
as §1

The test system of another series is M. furfur. As to the kind of experiment: Anti-fungal effect against M. furfur in a shampoo type formulation. The series is classed as cell-based, Malassezia furfur. As to the method: Experimentation was carried out to assess the anti-fungal effect of the fumagillin derivative alone and in combination with pseurotin A against M. furfur in a shampoo type formulation.
Compositions of the fumagillin derivative with and without pseurotin A were created and suspended into the baby shampoo. The shampoo mixture was then diluted out into the assay in a similar manner to Head & Shoulders, so that various dilution points in the assay represented multiple sub-inhibitory concentrations of the fumagillin derivative and pseurotin A.

Take `CO[C@@H]1[C@H](OC(=O)/C=C/[C@H]2O[C@@H]2C)CC[C@]2(CO2)[C@H]1[C@@]1(C)O[C@@H]1CC=C(C)C` [Fumagillin derivative]: the IC50 was approximately 0.7 µg/mL in series [1] (Malassezia furfur, ATCC38593, 120 h, 37° C., 5 days, Alamar blue); more than 64 µg/mL in series [2] (Homo sapiens, HEKa, 24 hrs treatment, cytotoxicity); more than 64 µg/mL in series [3] (Homo sapiens, Fibroblast, 24 hrs treatment, cytotoxicity). The MIC was approximately 2 µg/mL in series [1] (Malassezia furfur, ATCC38593, 120 h, 37° C., 5 days, pure compound 128 to 1 μg/mL) and 1.25 µg/mL in the series on M. furfur (Malassezia furfur, fumagillin derivative alone, suspended in baby shampoo). Further, the “Keratinocyte MIC” value in series [2] (human, 24 h) is more than 64 µg/mL. For the same compound, the “Fibroblast MIC” value in series [3] (human, 24 h) was more than 64 µg/mL.
Take `CC/C=C\[C@H](O)[C@H](O)C1=C(C)C(=O)[C@]2(O1)C(=O)N[C@@](OC)(C(=O)c1ccccc1)[C@@H]2O` [Pseurotin A, pseurotin A, reference compound]: the “antifungal effect against Malassezia yeasts” value in series [1] (screening of extracts) is on record as “some activity against M. furfur”. The “antifungal effect against M. furfur” value in the series on M. furfur (shampoo type formulation, alone or as mixture at sub-MIC concentrations) was “antifunimgal effect against M. furfur was observed”.

As a reminder, the IC50 is the concentration at which inhibition is half-maximal. The MIC is the least concentration at which growth counts as inhibited.
